Measurements from PMC5078989, “Targeted inhibition of the COP9 signalosome for treatment of cancer” (Nature Communications, 2016).

Tested on: panel of cancer cell lines
Experiment: Cell viability (CellTiter-Glo) dose-response across cancer cell line panel;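 further: after 72 h compound incubation with CellTiter-Glo ATP readout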
Type: cell-based, human
Conditions: Homo sapiens
Source text: Next, we explored the effect of CSN5 inhibition on the viability of cancer cells. To obtain a comprehensive picture, we generated dose–response curves with a CSN5 inhibitor across more than 500 cancer cell lines in a previously described standardized setting[47] (Supplementary Data 1).
A standardized CellTiter-Glo Assay (Promega #G7570) based on the quantification of ATP was applied according to the manufacturer's protocol to measure the amount of viable cells in culture. In brief, cells were seeded into 384-well plates at optimal density for each cell line. After 4 h, compounds were added at different concentrations in growth medium and incubated for another 72 h in a humidifying chamber at 37 °C and 5% CO2. […] EC50 values were calculated from the plot of percentage of inhibition versus inhibitor concentration using the nonlinear regression analysis software Origin 7.5SR6 (OriginLab Corp.).

COCc1ccccc1NCc1ccc([C@@H]2[C@H](O)CCCc3cncn32)c(-c2ccccc2Cl)c1 [CSN5i-2e, (5R,6R)-5-(2′-chloro-5-(((2-(methoxymethyl)phenyl)amino)methyl)-[1,1′-biphenyl]-2-yl)-6,7,8,9-tetrahydro-5H-imidazo[1,5-a]azepin-6-ol]
EC50 (MSTO-211H, MSTO-211H cells): 10.8 µM | EC50 (MV4-11, MV-4-11 cells): 6.71 µM | EC50 (Malme-3M, Malme-3M cells): 13.6 µM | EC50 (Mono-Mac-1, MONO-MAC-1 cells): 3.69 µM | EC50 (NALM-6, NALM-6 cells): 6.94 µM | EC50 (NB1, NB-1 cells): 11.7 µM | EC50 (NB-4, NB-4 cells): 8.86 µM | EC50 (NCI-H23, NCI-H23 cells): 23.9 µM | EC50 (NCI-H28, NCI-H28 cells): 15 µM | EC50 (NCI-H146, NCI-H146 cells): 11.6 µM | EC50 (NCI-H211, NCI-H211 cells): 20.6 µM | EC50 (NCI-H322, NCI-H322 cells): 12.9 µM | EC50 (NCI-H441, NCI-H441 cells): 24.7 µM | EC50 (NCI-H460, NCI-H460 cells): 10.1 µM | EC50 (NCI-H661, NCI-H661 cells): 20.1 µM | EC50 (NCI-H747, NCI-H747 cells): 10.7 µM | EC50 (NCI-H810, NCI-H810 cells): > 30 µM | EC50 (NCI-H838, NCI-H838 cells): > 30 µM | EC50 (NCI-H841, NCI-H841 cells): 11 µM | EC50 (NCI-H1048, NCI-H1048 cells): 15.8 µM | EC50 (NCI-H1155, NCI-H1155 cells): 8.05 µM | EC50 (NCI-H1299, NCI-H1299 cells): 8.56 µM | EC50 (NCI-H1339, NCI-H1339 cells): 11.2 µM | EC50 (NCI-H1341 cells): 10.2 µM | EC50 (NCI-H1355, NCI-H1355 cells): 12 µM | EC50 (NCI-H1373, NCI-H1373 cells): 13 µM | EC50 (NCI-H1437, NCI-H1437 cells): 11.7 µM | EC50 (NCI-H1568, NCI-H1568 cells): 11.2 µM | EC50 (NCI-H1581, NCI-H1581 cells): 7.75 µM | EC50 (NCI-H1650, NCI-H1650 cells): 12.6 µM | EC50 (NCI-H1666, NCI-H1666 cells): 12.9 µM | EC50 (NCI-H1693, NCI-H1693 cells): 14.7 µM | EC50 (NCI-H1703, NCI-H1703 cells): 6.5 µM | EC50 (NCI-H1755, NCI-H1755 cells): 12.8 µM | EC50 (NCI-H1975, NCI-H1975 cells): 11.3 µM | EC50 (NCI-H2023, NCI-H2023 cells): 12.4 µM | EC50 (NCI-H2030, NCI-H2030 cells): 29.9 µM | EC50 (NCI-H2073, NCI-H2073 cells): 20.3 µM | EC50 (NCI-H2087, NCI-H2087 cells): 13 µM | EC50 (NCI-H2110, NCI-H2110 cells): 11.8 µM | EC50 (NCI-H2122, NCI-H2122 cells): 10.1 µM | EC50 (NCI-H2170, NCI-H2170 cells): 10.4 µM | EC50 (NCI-H2171, NCI-H2171 cells): 17.6 µM | EC50 (NCI-H2228, NCI-H2228 cells): > 30 µM | EC50 (NCI-H2286, NCI-H2286 cells): 10.5 µM | EC50 (NCI-H2444, NCI-H2444 cells): 11.6 µM | EC50 (NCI-H2452, NCI-H2452 cells): > 30 µM | EC50 (NCI-H3255, NCI-H3255 cells): 13.2 µM | EC50 (NO36 cells): 13.1 µM | EC50 (NOMO-1, NOMO-1 cells): 7.28 µM | EC50 (NUGC-3, NUGC-3 cells): 9.54 µM | EC50 (OCI-AML-3, OCI-AML3 cells): 7.14 µM | EC50 (OCI-AML-5, OCI-AML5 cells): 9.5 µM | EC50 (OCI-Ly3, OCI-LY3 cells): 5.42 µM | EC50 (OCI-M1, OCI-M1 cells): 7.25 µM | EC50 (ONCO-DG-1, ONCO-DG-1 cells): 7.45 µM | EC50 (OUMS-23, OUMS-23 cells): 12.2 µM | EC50 (OV56, OV56 cells): 12.7 µM | EC50 (OVCAR-4, OVCAR-4 cells): 9.93 µM | EC50 (OVISE cells): 12.1 µM | EC50 (P3HR-1, P3HR-1 cells): 7.82 µM | EC50 (P12-Ichikawa, P12-ICHIKAWA cells): 7.02 µM | EC50 (P31-FUJ, P31/FUJ cells): 13.4 µM | EC50 (PANC-1, PANC-1 cells): 12.2 µM | EC50 (PANC-03-27, Panc 03.27 cells): 21.9 µM | EC50 (PC-3, PC-3 cells): 10.7 µM | EC50 (PC-14, PC-14 cells): 12.6 µM | EC50 (PE/CA-PJ49 cells): 12.7 µM | EC50 (PF-382, PF-382 cells): 4.99 µM | EC50 (PK-1, PK-1 cells): 15.9 µM | EC50 (PK-45H cells): 9.52 µM | EC50 (PK-59, PK-59 cells): 11.5 µM | EC50 (PL-21, PL-21 cells): 6.39 µM | EC50 (PLC-PRF-5, PLC/PRF/5 cells): 19.8 µM | EC50 (PSN1, PSN1 cells): 11 µM | EC50 (PaTu 8988s, PA-TU-8988S cells): 26.6 µM | EC50 (PaTu 8988t, PA-TU-8988T cells): 10.6 µM | EC50 (Panc 02.03, Panc 02.03 cells): > 30 µM | EC50 (Panc 04.03, Panc 04.03 cells): 13.1 µM | EC50 (QGP-1, QGP-1 cells): 11.8 µM | EC50 (RCM-1, RCM-1 cells): 13.6 µM | EC50 (RD, RD cells): 9.86 µM | EC50 (RERF-LC-AI cells): 11.7 µM | EC50 (RERF-LC-MS cells): 24.1 µM | EC50 (RKN cells): 28.9 µM | EC50 (RKO, RKO cells): 17.9 µM | EC50 (RPMI 8402, RPMI-8402 cells): 7.36 µM | EC50 (RPMI-7951, RPMI-7951 cells): 11.4 µM | EC50 (RT-112, RT-112 cells): 11.2 µM | EC50 (Rh41, RH-41 cells): 4.52 µM | EC50 (SCC-25, SCC-25 cells): 11.6 µM | EC50 (SCaBER, SCaBER cells): > 30 µM | EC50 (SEM cells): 9.47 µM | EC50 (SF-268, SF-268 cells): 12.7 µM | EC50 (SH-4, SH-4 cells): 11.1 µM | EC50 (SH-10-TC, SH-10-TC cells): 10.6 µM | EC50 (SH-SY5Y, SH-SY5Y cells): 8.13 µM | EC50 (SJRH30, SJRH30 cells): 15.5 µM | EC50 (SK-CO-1, SK-CO-1 cells): 10.7 µM | EC50 (SK-ES1, SK-ES-1 cells): 13.2 µM | EC50 (SK-HEP1, SK-HEP-1 cells): > 30 µM | EC50 (SK-LU-1, SK-LU-1 cells): 8.59 µM | EC50 (SK-MEL3, SK-MEL-3 cells): 10.3 µM | EC50 (SK-MEL-2, SK-MEL-2 cells): 14.9 µM | EC50 (SK-MEL-5, SK-MEL-5 cells): 10.6 µM | EC50 (SK-MEL-28, SK-MEL-28 cells): 13.2 µM | EC50 (SK-MEL-30, SK-MEL-30 cells): 12.1 µM | EC50 (SK-MEL-31 cells): 23.9 µM | EC50 (SK-MES-1, SK-MES-1 cells): 28 µM | EC50 (SK-N-SH, SK-N-SH cells): 26.6 µM | EC50 (SKM-1, SKM-1 cells): 13.6 µM | EC50 (SKNBE2, SK-N-BE(2) cells): 11.4 µM | EC50 (SNB-19, SNB-19 cells): 25 µM | EC50 (SNG-M cells): 20.9 µM | EC50 (SNU668, SNU-668 cells): 11.5 µM | EC50 (SNU878, SNU-878 cells): 7.43 µM | EC50 (SNU-8 cells): > 30 µM | EC50 (SNU-16, SNU-16 cells): 8.93 µM | EC50 (SNU-61 cells): > 30 µM | EC50 (SNU-175 cells): 17.1 µM | EC50 (SNU-213 cells): 13.4 µM | EC50 (SNU-324 cells): 12.8 µM | EC50 (SNU-349 cells): > 30 µM | EC50 (SNU-387, SNU-387 cells): 9.94 µM | EC50 (SNU-398, SNU-398 cells): 6.84 µM | EC50 (SNU-410 cells): 22.2 µM | EC50 (SNU-423, SNU-423 cells): 12.7 µM | EC50 (SNU-449, SNU-449 cells): 25.6 µM | EC50 (SNU-475, SNU-475 cells): > 30 µM
